This note sets out measurements from patent publication US20240317721A1, “PYRAZOLYL DERIVATIVES AS INHIBITORS OF THE KRAS MUTANT PROTEIN” (NOVARTIS AG, priority 2021, published 2024).

Each structure is given as a SMILES string. Bounds are passed on as bounds.

This experiment addresses KRasG12C (M1-K169, biotinylated on the N-terminus) (Homo sapiens (Human), UniProt P01116, G12C). As to the kind of experiment: Covalent competition assay: scintillation proximity assay (SPA) quantifying covalent modification of KRASG12C. It is filed as binding. As to conditions: competition with radiolabeled covalent probe (Compound B/Compound A), 2 hours incubation, 10 nM KRasG12C. In outline:
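Test compounds compete with a radiolabeled covalent probe for modification of N-terminally biotinylated KRasG12C(M1-K169):GDP, final 10 nM protein, 25 nM radio-ligand, 475 nM unlabelled ligand, 2 h with agitation in 20 mM Tris-HCl pH 7.5, 150 mM NaCl, 0.1 mM MgCl2, 0.01% Tween-20.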
(In general: In a scintillation proximity assay essentially only radioactivity close to the scintillant gives light.)
Turning to `C=CC(=O)N1CC2(CC(n3nc(N4CCC(N(CC)C5COC5)CC4(C)C)c(-c4c(Cl)c(C)cc5[nH]ncc45)c3C)C2)C1` (single isomer, unassigned) [Example 48a, 1-(6-(4-(5-chloro-6-methyl-1H-indazol-4-yl)-3-(4-(ethyl(oxetan-3-yl)amino)-2,2-dimethylpiperidin-1-yl)-5-methyl-1H-pyrazol-1-yl)-2-azaspiro[3.3]heptan-2-yl)prop-2-en-1-one], the IC50 (usually the concentration at which inhibition is half-maximal) is 0.296 µM.

For `C=C(F)C(=O)N1CC2(CC(n3nc(N4CCN(C[C@@H]5COCCO5)C[C@]4(C)CC)c(-c4c(Cl)c(C)cc5[nH]ncc45)c3C)C2)C1` (single isomer, unassigned) [Example 174b], the IC50 was 0.121 µM. The figure for `C=CC(=O)N1CC2(CC(n3nc(N4CC[C@@H](CN5CCOCC5)CC4(C)C)c(-c4c(Cl)c(C)cc5[nH]nc(N)c45)c3C)C2)C1` (single isomer, unassigned) [Example 242a] is 0.013 µM; for `C=CC(=O)N1CC2(CC(n3nc(N4CCC(C)(O)CC4(C)C)c(-c4c(Cl)c(C)cc5[nH]ncc45)c3C)C2)C1` (single isomer, unassigned) [Example 28b, 1-(6-(4-(5-chloro-6-methyl-1H-indazol-4-yl)-3-(4-hydroxy-2,2,4-trimethylpiperidin-1-yl)-5-methyl-1H-pyrazol-1-yl)-2-azaspiro[3.3]heptan-2-yl)prop-2-en-1-one] it is 1.3 µM. The result for `C=CC(=O)N1CC2(CC(n3nc(N4CC[C@@H](CN5CCN6C[C@@H](O)C[C@@H]6C5)CC4(C)C)c(-c4c(Cl)c(Cl)cc5[nH]ncc45)c3C)C2)C1` (single isomer, unassigned) [Example 287a] reads 0.307 µM. The result for `C=CC(=O)N1CC2(CC(n3nc(N4CC[C@@H](OCCN5CCOCC5)CC4(C)C)c(-c4c(Cl)c(Cl)cc5[nH]ncc45)c3C)C2)C1` (single isomer, unassigned) [Example 110a] reads greater than 5 µM; that for `C=CC(=O)N1CC2(CC(n3nc(N4CC[C@@H](CN5CC6C5CCN6C5COC5)CC4(C)C)c(-c4c(Cl)c(Cl)cc5[nH]ncc45)c3C)C2)C1` (single isomer, unassigned) [Example 278a, 1-(6-(4-(5,6-dichloro-1H-indazol-4-yl)-3-((R)-2,2-dimethyl-4-(((1S*,5S*)-2-(oxetan-3-yl)-2,6-diazabicyclo[3.2.0]heptan-6-yl)methyl)piperidin-1-yl)-5-methyl-1H-pyrazol-1-yl)-2-azaspiro[3.3]heptan-2-yl)prop-2-en-1-one], greater than 5 µM.

With `C=CC(=O)N1CC2(CC(n3nc(N4CC[C@@H](CN5CC6(CCCN6C6COC6)C5)CC4(C)C)c(-c4c(Cl)c(Cl)cc5[nH]ncc45)c3C)C2)C1` (single isomer, unassigned) [Example 272b], the IC50 stood at 0.008 µM. As for `C=CC(=O)N1CC2(CC(n3nc(N4CCN(CCOC)C[C@@]4(C)C(F)F)c(-c4c(Cl)c(C)cc5[nH]ncc45)c3C)C2)C1` (single isomer, unassigned) [Example 179b], the half-inhibitory concentration (IC50) stood at 0.038 µM. The figure for `C=CC(=O)N1CC2(CC(n3nc(N4CC[C@@H](CN5CC6CCC(C5)O6)CC4(C)C)c(-c4c(Cl)c(Cl)cc5[nH]ncc45)c3C)C2)C1` (single isomer, unassigned) [Example 314b] is 0.052 µM; for `C=CC(=O)N1CC2(CC(n3nc(N4CCN(C(C)=O)CC45CCC5)c(-c4c(Cl)c(C)cc5[nH]ncc45)c3C)C2)C1` (single isomer, unassigned) [Example 21a, 1-(6-(3-(8-acetyl-5,8-diazaspiro[3.5]nonan-5-yl)-4-(5-chloro-6-methyl-1H-indazol-4-yl)-5-methyl-1H-pyrazol-1-yl)-2-azaspiro[3.3]heptan-2-yl)prop-2-en-1-one] it is 11.1 µM; for `C=CC(=O)N1CC2(CC(n3nc(N4CCC(=O)CC45CCC5)c(-c4c(Cl)c(C)cc5[nH]ncc45)c3C)C2)C1` [Example 46, 5-(1-(2-acryloyl-2-azaspiro[3.3]heptan-6-yl)-4-(5-chloro-6-methyl-1H-indazol-4-yl)-5-methyl-1H-pyrazol-3-yl)-5-azaspiro[3.5]nonan-8-one] it is 0.138 µM.

For `C=CC(=O)N1CC2(CC(n3nc(N4CC[C@@H](CN5CCN(C6COC6)C[C@@H]5CO)CC4(C)C)c(-c4c(Cl)c(Cl)cc5[nH]ncc45)c3C)C2)C1` (single isomer, unassigned) [Example 290b], the concentration for half-maximal inhibition (IC50) was less than 0.005 µM.

On to `C=CC(=O)N1CC2(CC(n3nc(N4CCC5(CC4)CN(C(C)=O)CCO5)c(-c4c(Cl)c(C)cc5[nH]ncc45)c3C)C2)C1` (single isomer, unassigned) [Example 26b, 1-(6-(3-(4-acetyl-1-oxa-4,9-diazaspiro [5.5]undecan-9-yl)-4-(5-chloro-6-methyl-1H-indazol-4-yl)-5-methyl-1H-pyrazol-1-yl)-2-azaspiro[3.3]heptan-2-yl)prop-2-en-1-one], for which the IC50 was found to be 0.11 µM. The result for `C=CC(=O)N1CC2(CC(n3nc(N4CCN(C5COC5)C[C@@]4(C)CC)c(-c4c(Cl)c(C)cc5[nH]ncc45)c3C)C2)C1` (single isomer, unassigned) [Example 143b] reads 0.039 µM; that for `C=CC(=O)N1CC2(CC(n3nc(N4CCN(C5CC6(COC6)C5)CC45CCC5)c(-c4c(Cl)c(C)cc5[nH]ncc45)c3C)C2)C1` (single isomer, unassigned) [Example 135a, 1-(6-(3-(8-(2-oxaspiro[3.3]heptan-6-yl)-5,8-diazaspiro[3.5]nonan-5-yl)-4-(5-chloro-6-methyl-1H-indazol-4-yl)-5-methyl-1H-pyrazol-1-yl)-2-azaspiro[3.3]heptan-2-yl)prop-2-en-1-one], greater than 5 µM. The result for `C=CC(=O)N1CC2(CC(n3nc(N4C5CCC4COC5)c(-c4c(Cl)c(C)cc5[nH]ncc45)c3C)C2)C1` (single isomer, unassigned) [Example 112a] reads greater than 5 µM; that for `C=CC(=O)N1CC2(CC(n3nc(N4CCN(C(=O)C(F)F)CC4(C)C)c(-c4c(Cl)c(C)cc5[nH]ncc45)c3C)C2)C1` (single isomer, unassigned) [Example 128b, 1-(6-(4-(5-chloro-6-methyl-1H-indazol-4-yl)-3-(4-(2,2-difluoroacetyl)-2,2-dimethylpiperazin-1-yl)-5-methyl-1H-pyrazol-1-yl)-2-azaspiro[3.3]heptan-2-yl)prop-2-en-1-one], 0.054 µM; that for `C=CC(=O)N1CC2(CC(n3nc(N4CCN(C[C@H]5COCCO5)CC45CCC5)c(-c4c(Cl)c(C)cc5[nH]ncc45)c3C)C2)C1` (single isomer, unassigned) [Example 189a], greater than 5 µM.

With `C=CC(=O)N1CC2(CC(n3nc(N4CCN(C5CCCOC5)C[C@]4(C)CC)c(-c4c(Cl)c(C)cc5[nH]ncc45)c3C)C2)C1` (single isomer, unassigned) [Example 157b], the IC50 was greater than 5 µM.

Consider `C=CC(=O)N1CC2(CC(n3nc(N4CCC(C(=O)N(C)C)CC4(C)C)c(-c4c(Cl)c(C)cc5[nH]ncc45)c3C)C2)C1` (stereo not shown) [Example 98a, 1-(1-(2-acryloyl-2-azaspiro[3.3]heptan-6-yl)-4-(5-chloro-6-methyl-1H-indazol-4-yl)-5-methyl-1H-pyrazol-3-yl)-N,N,2,2-tetramethylpiperidine-4-carboxamide], for which the IC50 was greater than 5 µM. As for `C=CC(=O)N1CC2(CC(n3nc(N4CCN(C5CCOCC5)C[C@@]4(C)C(F)F)c(-c4c(Cl)c(Cl)cc5[nH]ncc45)c3C)C2)C1` (single isomer, unassigned) [Example 106b], the IC50 was 0.014 µM.
